# Read-outs that look alike come from different tables or passages of the source.
# Columns and labels:
# [1] = system: THR (ANGPTL4, CPT1A, DIO1 RNA in Huh-7 cells); assay: Differential gene expression assay in Huh-7 cells; type: cell-based, human; conditions: Homo sapiens
# Description: Hepatoma-derived Huh-7 cells (JCRB Cell Bank, JCRB0403) were obtained directly from the repository, which performed cell line authentication via isozyme analysis and comprehensively tested for microbial contamination, viral contamination, and cross culture contamination. Cells were routinely cultured in DMEM (Corning, 10-013-CM) supplemented with 10% FBS and 1% P/S at 37°C and 5% CO2 until 80–90% confluency. Cells were then detached with 0.05% trypsin (Corning, 25-052-CV), resuspended in TH-free medium (DMEM supplemented with 10% TH-depleted FBS and 1% P/S), and seeded into collagen-coated, 96-well microplates (Corning, 354407) at 5.0 x 10^4 cells/well. After 24 hrs, the culture medium was replaced with treatment media. Cells were treated for 24 hrs. TH-depletion of the FBS via resin treatment was accomplished as previously described. All treatment media were made by mixing test compounds, serially diluted in DMSO, with TH-free medium (0.1% final DMSO concentration).
# After 24 hrs in treatment media, both Huh-7 cells and PHH were processed with the TaqMan Fast Advanced Cells-to-Ct Kit (Invitrogen, A35378), according to the manufacturer’s protocol. Briefly, the treatment media was removed and the cells were washed with 50 μL cold 1X phosphate-buffered saline (Corning, 21-040-CM). Fifty μL lysis buffer containing DNase I was added to each well and the plate was incubated on a rotor at RT for 5 mins. Five μL stop solution was then added to each well and after another 2 mins incubation on a rotor at RT, the cell lysates were used for reverse transcription. The resulting cDNA was diluted 1:2 with nuclease-free, distilled water (Invitrogen, 10977015). Gene expression was measured using TaqMan Fast Advanced Master Mix (Applied Biosystems, 4444964) and the following TaqMan Gene Expression assays (Applied Biosystems, 4331182): 18S (Hs99999901_s1), ACTB (Hs01060665_g1), ANGPTL4 (Hs01101123_g1), CPT1A (Hs00912671_m1), DIO1 (Hs00174944_m1), TFG (Hs02832013_g1), THRA (Hs00268470_m1), and THRB (Hs00230861_m1). ACTB and TFG served as control housekeeping genes for Huh-7 assays and 18S and ACTB for PHH assays. Ten μL reactions were run on the qTOWER³ 84 (Analytik Jena). Relative quantification (RQ) of gene expression was calculated via the 2^−ΔΔCt method and dose-response curves were fitted by non-linear regression with variable slope. Statistical analysis was performed in GraphPad Prism 8.
# We aimed to develop an in vitro, cell-based assay that is not only amenable to high throughput screening of compounds, but that can also more reliably recapitulate in vivo processes. Because activated THR may function as a transcription factor, we compared the action of THR agonists in a human hepatocyte-derived cell line and in primary human hepatocytes (PHH) by quantifying transcriptional changes resulting from compound treatment (Fig 2A). Cells were cultured in TH-depleted media for 24 hrs and then treated with compounds for 24 hrs. The RNA levels of THR target genes were then measured via RT-qPCR.
# [2] = system: HFD fed rats; assay: High-fat diet fed rat study: serum and hepatic lipid levels; type: in vivo; conditions: 0.5 mg/kg I.P. single dose
# Description: Animals were purchased from Vital River Laboratory Animal Technology Co. Ltd. and experiments were conducted at Covance Pharmaceutical R&D (Shanghai) Co., Ltd. (China). Animals were group-housed in polycarbonate cages with corncob bedding under controlled temperature (21–25°C), humidity (40–70%), and a 12-hr light/dark cycle. All procedures performed were in compliance with local animal welfare legislation, Covance global policies and procedures, and the Guide for the Care and Use of Laboratory Animals.
# Eighty-four male Sprague Dawley rats, approximately 8 to 11 weeks of age, were fed with either a normal diet, ND (D12450K: 10 kcal% fat, no sucrose), or high-fat diet, HFD (D12109C: 40 kcal% fat, 1.25 gm% cholesterol, 0.5 gm% sodium cholate, 12.5 gm% sucrose). After 12 days of diet consumption, baseline serum total cholesterol and low-density lipoprotein cholesterol (LDL-C) levels were measured with the cobas 6000 c501 Chemistry Analyzer (Roche) to confirm hypercholesterolemia in the HFD fed rats. Animals were then randomized into treatment groups.
# Twenty-four hrs after dosing, animals were euthanized by CO2 inhalation and serum and plasma were collected along with liver tissue. Serum total cholesterol and LDL-C levels were determined as described above. […] Caudate lobes of the liver were used for analysis of hepatic total cholesterol (Abcam, ab65390) and triglyceride levels (Abcam, ab65336) via enzyme-linked immunosorbent assay. Right lateral lobes were stored in RNAlater (Invitrogen, AM7020) at -70°C until homogenization with the Scientz-48 TissueLyser LT for downstream gene expression analysis. RNA extraction was performed at WuXi AppTec (Hong Kong) Limited (China) with the RNeasy Mini Kit (Qiagen, 74106) and RNA concentration and quality was determined using the Nanodrop 2000 (Thermo Scientific); additional quality control was assessed with agarose gel electrophoresis. One μg total RNA from each sample was then reverse-transcribed using the High Capacity cDNA Reverse Transcription kit (Applied Biosystems, 4368814) and the resulting cDNA was diluted 1:5 with nuclease-free, distilled water. Gene expression was measured using TaqMan Fast Advanced Master Mix and the following TaqMan Gene Expression assays: Actb (Rn00667869_m1), Cpt1a (Rn00580702_m1), Dio1 (Rn00572183_m1), Me1 (Rn00561502_m1), Rplp1 (Rn03467157_gH), and Thrsp (Rn01511034_m1). Actb and Rplp1 served as control housekeeping genes. Ten μL reactions were run on the qTOWER³ 84. Relative quantification (RQ) of gene expression was calculated via the 2^−ΔΔCt method and statistical analysis was performed in GraphPad Prism 8.0 and Microsoft Excel.
# [3] = system: THR (THRSP RNA in PHH); assay: Differential gene expression assay in primary human hepatocytes (PHH); type: cell-based; conditions: Hepatocyte, RT-qPCR, 24 hrs treatment, read-out: PHH EC50 Mean ± SEM
# [4] = Huh-7, CPT1A RNA, RT-qPCR, 24 hrs treatment, read-out: Huh-7 EC50 Mean ± SEM
# [5] = Huh-7, 24 hrs, n = 2 (Fig 2C), read-out: mean EC50, ANGPTL4
# [6] = Huh-7, 24 hrs, n = 2 (Fig 2C), read-out: mean EC50, CPT1A
# [7] = Huh-7, 24 hrs, n = 2 (Fig 2C), read-out: mean EC50, DIO1
SMILES,"EC50 [1, 4]","EC50 [1, 5]","EC50 [1, 6]","EC50 [1, 7]",decrease in serum total cholesterol (pre-dose vs 24 hrs post-dose) [2],decrease in serum triglyceride levels (pre-dose vs 24 hrs post-dose) [2],EC50 [3]
"N[C@@H](Cc1cc(I)c(Oc2ccc(O)c(I)c2)c(I)c1)C(=O)O [T3, triiodothyronine]",[…],[…],[…],[…],68.2%,71.2%,[…]
